Laboratory results taken from patent publication US11453671B2, “Pyrazolopyrimidine inhibitors of JAK kinases and uses thereof” (Genentech, Inc., priority 2020, dated 2022).

Assays:
[1] = Cell cytotoxicity assay Jurkat (CellTiter-Glo, 72 hours); assay type: cell-based; conditions: human, Jurkat clone E6-1 cells, Table 3; 72 hours, top concentration of 50 μM; read-out: Cytotox Jurkat EC50
Procedure, shortened: (§1)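 HEK-293T or Jurkat E6-1 cells plated at 450 cells/well were treated the next day with a 10-point titration from 50 μM top (0.5% DMSO final). After 72 h at 37° C, viability was read by CellTiter-Glo luminescence.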

[2] = Mouse lung tissue binding (equilibrium dialysis, RED); assay type: in vitro ADME; conditions: mouse lung tissue binding, % bound (Table 3)
Procedure, shortened: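 Equilibrium dialysis of mouse lung homogenate against buffer at 37° C. Method (a) used 1 μM compound, pH 7.4 homogenate and 6 h dialysis. Method (b) used 5 μM compound in 1:9 homogenate (0.05 M potassium phosphate pH 7.4) and 4 h dialysis, with fu corrected for dilution. Both were run in triplicate with LC-MS/MS quantification.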

[3] = Cell cytotoxicity assay HEK-293T (CellTiter-Glo, 72 hours); assay type: cell-based; conditions: human, HEK-293T cells, Table 3; 72 hours, top concentration of 50 μM; read-out: Cytotox K-293 EC50
Procedure, shortened: as §1

[4] = target: Recombinant human JAK2 kinase domain protein (Residues 812-1132) (Homo sapiens, UniProt O60674); test: JAK2 biochemical assay (microfluidic mobility shift, peptide phosphorylation); conditions: Enzyme JAK2 Ki (nM), 25 μM ATP, 0.2 nM total JAK2
Sequence of Recombinant human JAK2 kinase domain protein (Residues 812-1132) (O60674 812-1132): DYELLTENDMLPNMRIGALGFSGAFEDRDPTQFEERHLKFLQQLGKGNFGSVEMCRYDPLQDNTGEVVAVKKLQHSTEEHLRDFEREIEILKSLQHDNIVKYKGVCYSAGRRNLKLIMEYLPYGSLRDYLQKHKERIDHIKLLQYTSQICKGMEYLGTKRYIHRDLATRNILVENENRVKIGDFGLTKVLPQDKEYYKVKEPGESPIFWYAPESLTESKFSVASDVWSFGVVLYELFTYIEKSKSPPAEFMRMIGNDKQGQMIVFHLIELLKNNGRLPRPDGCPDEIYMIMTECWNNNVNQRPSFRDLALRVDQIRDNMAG

[5] = Cell cytotoxicity assay A549 (CellTiter-Glo, 72 hours); assay type: cell-based; conditions: human, A549 cells, Table 3; 72 hours, top concentration of 50 μM; read-out: Cytotox A549 EC50
Procedure, shortened: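 A549 cells were plated overnight, then exposed for 72 h at 37 °C to a 10-point compound titration (top 50 μM, 0.5% DMSO final). Viability was read as CellTiter-Glo luminescence after 20 min at room temperature.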

Mouse LTB % [2] [%] | Ki [4] [nM] | SMILES | EC50 at 72 h [1] [µM] | EC50 at 72 h [3] [µM] | EC50 at 72 h [5] [µM]
80.5 | 0.28 | Cn1cc(NC(=O)c2cnn3cccnc23)c(-c2cc(S(=O)(=O)CCCO)ccc2OC(F)F)n1 [Example 63, N-[3-[2-(difluoromethoxy)-5-(3-hydroxypropylsulfonyl)phenyl]-1-methyl-pyrazol-4-yl]pyrazolo[1,5-a]pyrimidine-3-carboxamide] | 35 | 20 | ≥ 50
81.8 | 0.21 | CN(CCO)S(=O)(=O)c1ccc(OC(F)F)c(-c2nn(C)cc2NC(=O)c2cnn3cccnc23)c1 [Example 73, N-(3-(2-(difluoromethoxy)-5-(N-(2-hydroxyethyl)-N-methylsulfamoyl)phenyl)-1-methyl-1H-pyrazol-4-yl)pyrazolo[1,5-a]pyrimidine-3-carboxamide] | 8.4 | 2.9 | ≥ 50
